Data reported in ChEMBL document CHEMBL2413063, “Neuroactive diol and acyloin metabolites from cone snail-associated bacteria” (Bioorg Med Chem Lett, 2013).
The source made the active and inactive calls. The rule behind the calls is not given here.

Legend:
DRG neuron [1] = assay: Neuronal activity in mouse DRG neurons assessed as amplification of KCl pulse-induced intracellular calcium transient at 90 uM by fluorescence microscopic analysis; format: functional, cell-based
DRG neuron [2] = assay: Neuronal activity in mouse DRG neurons assessed as amplification of KCl pulse-induced intracellular calcium transient at 73 uM by fluorescence microscopic analysis; format: functional, cell-based
[3] = target: Sodium-dependent noradrenaline transporter (Homo sapiens, UniProt P23975); assay: Binding affinity to human norepinephrine transporter by ligand displacement assay
Sequence of Sodium-dependent noradrenaline transporter (P23975 whole entry): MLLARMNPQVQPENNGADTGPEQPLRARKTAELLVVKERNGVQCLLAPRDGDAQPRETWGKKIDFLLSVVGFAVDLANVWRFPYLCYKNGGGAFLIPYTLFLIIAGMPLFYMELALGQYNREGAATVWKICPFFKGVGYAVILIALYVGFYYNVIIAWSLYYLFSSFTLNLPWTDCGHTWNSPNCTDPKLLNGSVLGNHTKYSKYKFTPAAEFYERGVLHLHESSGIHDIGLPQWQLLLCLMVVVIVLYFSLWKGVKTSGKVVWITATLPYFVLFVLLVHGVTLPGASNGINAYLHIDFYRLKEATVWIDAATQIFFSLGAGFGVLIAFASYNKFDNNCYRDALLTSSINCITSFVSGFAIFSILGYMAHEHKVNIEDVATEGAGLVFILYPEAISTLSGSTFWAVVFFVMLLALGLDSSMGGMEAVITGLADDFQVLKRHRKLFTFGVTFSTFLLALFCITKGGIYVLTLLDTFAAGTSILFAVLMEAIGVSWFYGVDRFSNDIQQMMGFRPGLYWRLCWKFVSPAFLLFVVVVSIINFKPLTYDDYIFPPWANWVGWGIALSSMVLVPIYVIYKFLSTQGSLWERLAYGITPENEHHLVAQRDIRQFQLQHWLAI

[4] = target: Sodium-dependent serotonin transporter (Homo sapiens) (UniProt P31645); assay: Binding affinity to serotonin transporter (unknown origin) at 10 uM by ligand displacement assay
Sequence of Sodium-dependent serotonin transporter (Homo sapiens) (P31645 whole entry, looked up): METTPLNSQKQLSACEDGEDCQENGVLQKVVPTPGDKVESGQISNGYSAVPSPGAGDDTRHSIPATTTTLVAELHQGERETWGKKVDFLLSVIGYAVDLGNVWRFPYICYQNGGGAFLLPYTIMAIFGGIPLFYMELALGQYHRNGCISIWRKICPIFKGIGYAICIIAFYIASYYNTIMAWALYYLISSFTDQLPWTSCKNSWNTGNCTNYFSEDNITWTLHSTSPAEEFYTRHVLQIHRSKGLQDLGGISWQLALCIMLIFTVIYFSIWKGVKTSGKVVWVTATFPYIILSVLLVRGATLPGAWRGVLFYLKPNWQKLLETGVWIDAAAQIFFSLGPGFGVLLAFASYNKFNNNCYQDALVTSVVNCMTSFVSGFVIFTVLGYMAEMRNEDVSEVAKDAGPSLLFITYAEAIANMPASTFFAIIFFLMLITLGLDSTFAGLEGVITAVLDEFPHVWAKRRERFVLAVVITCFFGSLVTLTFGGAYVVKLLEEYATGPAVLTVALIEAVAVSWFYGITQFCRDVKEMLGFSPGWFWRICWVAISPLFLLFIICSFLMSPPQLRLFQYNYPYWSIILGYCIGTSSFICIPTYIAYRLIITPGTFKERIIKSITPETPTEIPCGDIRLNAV

[5] = target: Sodium-dependent dopamine transporter (Homo sapiens) (UniProt Q01959); assay: Binding affinity to dopamine transporter (unknown origin) at 10 uM by ligand displacement assay
Sequence of Sodium-dependent dopamine transporter (Homo sapiens) (Q01959 whole entry): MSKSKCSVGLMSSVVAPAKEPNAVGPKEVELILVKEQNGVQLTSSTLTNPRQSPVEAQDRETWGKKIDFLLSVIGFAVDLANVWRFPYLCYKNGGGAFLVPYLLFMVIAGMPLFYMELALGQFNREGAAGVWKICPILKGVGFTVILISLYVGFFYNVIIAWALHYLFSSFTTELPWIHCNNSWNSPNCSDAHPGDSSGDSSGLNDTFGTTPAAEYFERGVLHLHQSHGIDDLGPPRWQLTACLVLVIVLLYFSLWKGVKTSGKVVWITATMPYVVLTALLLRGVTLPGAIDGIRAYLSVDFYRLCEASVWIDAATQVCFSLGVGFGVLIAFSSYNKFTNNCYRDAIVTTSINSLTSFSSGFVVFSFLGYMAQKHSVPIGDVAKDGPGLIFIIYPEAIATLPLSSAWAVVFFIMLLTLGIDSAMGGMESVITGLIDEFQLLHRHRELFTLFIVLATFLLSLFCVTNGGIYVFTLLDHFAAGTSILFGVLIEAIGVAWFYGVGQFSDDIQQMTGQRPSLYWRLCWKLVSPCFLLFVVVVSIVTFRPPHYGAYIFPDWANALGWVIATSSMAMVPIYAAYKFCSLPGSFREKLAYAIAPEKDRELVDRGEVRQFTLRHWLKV

For `CC(C)CC(O)C(=O)Cc1ccc(O)cc1` (stereo unspecified), the Activity (DRG neuron [1]) was “inactive”.

`CC(C)CC(=O)C(O)Cc1ccc(O)cc1` (stereo unspecified) was tested, and the Activity (DRG neuron [1]) was “inactive”.

In the case of `O=C(Cc1ccc(O)cc1)C(O)Cc1ccc(O)cc1` (stereo unspecified), the Activity (DRG neuron [2]) is reported as “Active”.

In the case of `O=C(Cc1c[nH]c2ccccc12)C(O)Cc1ccc(O)cc1` (stereo unspecified), the Ki [3] is reported as 867 nM, the inhibition [4] is reported as “inactive” and the inhibition [5] is reported as “inactive”.
